From US12410153B2, “Compounds, compositions and methods” (Avalo Therapeutics, Inc., priority 2014, dated 2025)
Read-outs that look alike come from different tables or passages of the source.

What was measured:
[1] = target: T1, NMDA-GluN2B receptors, rhesus monkey frontal cortex homogenate (Macaca mulatta, UniProt F6T8S6); test: Radioligand binding, rhesus frontal cortex homogenate; settings: geometric mean
T1 construct: frontal cortex homogenate (dog and rhesus monkey); from tissue; host or cells: rhesus monkey frontal cortex homogenate
T1 sequence (F6T8S6 29-1484): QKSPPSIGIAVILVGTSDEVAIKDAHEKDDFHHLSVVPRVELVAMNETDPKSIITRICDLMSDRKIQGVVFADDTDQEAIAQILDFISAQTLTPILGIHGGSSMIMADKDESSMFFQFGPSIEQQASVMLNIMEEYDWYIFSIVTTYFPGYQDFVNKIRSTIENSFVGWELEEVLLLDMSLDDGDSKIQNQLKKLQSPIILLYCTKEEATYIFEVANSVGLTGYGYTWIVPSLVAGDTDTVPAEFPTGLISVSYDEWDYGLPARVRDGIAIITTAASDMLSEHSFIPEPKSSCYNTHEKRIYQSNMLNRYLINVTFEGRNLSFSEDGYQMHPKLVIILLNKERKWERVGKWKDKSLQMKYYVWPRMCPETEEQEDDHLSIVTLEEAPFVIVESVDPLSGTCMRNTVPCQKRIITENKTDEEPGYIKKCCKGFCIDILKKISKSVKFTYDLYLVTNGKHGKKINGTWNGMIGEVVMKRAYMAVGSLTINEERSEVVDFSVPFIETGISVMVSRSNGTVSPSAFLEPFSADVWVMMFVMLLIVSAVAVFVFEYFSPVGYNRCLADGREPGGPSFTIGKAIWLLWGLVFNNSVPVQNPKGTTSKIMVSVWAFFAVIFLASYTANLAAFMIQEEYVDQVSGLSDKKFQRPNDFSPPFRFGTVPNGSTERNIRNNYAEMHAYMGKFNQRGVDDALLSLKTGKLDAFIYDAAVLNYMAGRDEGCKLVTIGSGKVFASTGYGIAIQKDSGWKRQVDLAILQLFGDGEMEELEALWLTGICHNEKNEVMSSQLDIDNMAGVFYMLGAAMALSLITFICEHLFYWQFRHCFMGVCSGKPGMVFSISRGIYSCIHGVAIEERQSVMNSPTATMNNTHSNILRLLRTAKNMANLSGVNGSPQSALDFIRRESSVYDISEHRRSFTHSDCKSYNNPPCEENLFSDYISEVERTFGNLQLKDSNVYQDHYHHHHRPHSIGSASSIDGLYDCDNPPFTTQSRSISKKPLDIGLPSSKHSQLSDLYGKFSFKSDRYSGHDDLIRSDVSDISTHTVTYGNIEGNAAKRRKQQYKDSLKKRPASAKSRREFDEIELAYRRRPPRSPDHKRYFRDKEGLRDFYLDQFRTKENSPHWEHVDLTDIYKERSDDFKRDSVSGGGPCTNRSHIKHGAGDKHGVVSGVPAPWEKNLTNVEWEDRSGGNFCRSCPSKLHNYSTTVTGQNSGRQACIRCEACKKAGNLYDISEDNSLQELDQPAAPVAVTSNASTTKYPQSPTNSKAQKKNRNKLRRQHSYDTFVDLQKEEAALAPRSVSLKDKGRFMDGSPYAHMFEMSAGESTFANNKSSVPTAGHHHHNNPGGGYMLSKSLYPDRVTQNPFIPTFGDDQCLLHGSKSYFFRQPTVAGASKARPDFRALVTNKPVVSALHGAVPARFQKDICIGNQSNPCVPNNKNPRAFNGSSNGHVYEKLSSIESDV
Protocol: Radioligand binding assays were performed at room temperature (or 37° C.) in 96-well microtiter plates with a final assay volume of […] in 20 mM HEPES buffer (pH 7.4) containing 150 mM NaCl. […] Nonspecific binding was assessed using N-(3-chlorobenzyl)-4-iodobenzimidamide (final concentration, 10 μM), and total binding was measured by addition of DMSO (final concentration, 2%). L(tk−) cell membranes expressing human GluN1a/GluN2B receptors (final concentration, 40 pM) and [^3H]-[(E)-N1-(2-methoxybenzyl)-cinnamamidine] (final concentration, 1 nM) were added to all wells of the microtiter plate. After 3 h (24 h or 48 h) of incubation at room temperature (or 37° C.), samples were filtered through Packard GF/B filters (presoaked in 0.05% polyethylenimine [PEI; Sigma P-3143]) and washed 10 times with 1 mL of cold 20 mM HEPES buffer per wash. After vacuum drying of the filter plates, 50 μL of Packard Microscint-20 was added and the bound radioactivity determined in a Packard TopCount.
Analogous binding experiments, to those described above for the cloned human receptor expressed in L(tk−) cells, were also performed using whole brain homogenate (rat), frontal cortex homogenate (dog and rhesus monkey), and temporal cortex homogenate (human).

[2] = Human pharmacokinetic study, single ascending oral doses; assay type: in vivo; settings: for AUC(0-inf) / AUC(0-t) / Cmax / Tmax / half-life: male, human, plasma, oral
Protocol: Twenty-four healthy, young male subjects were assigned to 1 of 3 sequential treatment panels (A, B, and C). For each panel of 8 subjects, 2 subjects received placebo and 6 subjects were administered single ascending oral doses of crystalline Form II of Compound (I) with a minimum 7-day washout between each dose: Panel A (0.1, 0.2, 0.5, 1, and 2 mg); Panel B (2, 4, 8, and 15 mg, and 4 mg with food); and Panel C (15 and 20 mg). Blood samples were collected pre-dose and 0.5, 1, 1.5, 2, 3, 4, 6, 9, 12, 18, 24, 30, 48, and 72 h post dose. Plasma samples were analyzed for Form II concentrations using reversed phase high performance liquid chromatography with tandem mass spectrometric detection (Merck Research Laboratories). The analytical range was 0.5 to 500 nM (0.180 to 180 ng/mL).

[3] = Cardiovascular safety in anesthetized dogs, continuous IV infusion 90 min; assay type: in vivo, dog; settings: dog, plasma, escalating IV infusion rates, read-out: plasma concentration at the end of infusion
Protocol: (§1) The potential effects of Form II of Compound (I) on the functions of the nervous system, cardiovascular system, and respiratory system were evaluated in a battery of safety pharmacology studies that included an in vitro human ether-a-go-go-related gene (hERG) assay and in vivo studies in rats, dogs, and monkeys. CNS effects were tested in rats at single doses at 15, 75, and 225 mg/kg.
(§2) Effects of Form II on the cardiovascular system were tested in several studies. Potential QTc effects were tested in vitro and in vivo.
(§3) Hemodynamic effects were tested in dogs and monkeys. […] However, Form II did produce dose-independent increases in systolic (12-15 mm Hg), diastolic (7-10 mm Hg), and mean arterial pressures (9-12 mm Hg) in conscious, chair-restrained monkeys given single oral doses at 15, 75, or 150 mg/kg and monitored for 6 h post-dose.

dogs = test: as above; assay type: in vivo, dog; settings: escalating IV infusion rates
Protocol: as §1, §2, §3

[4] = Cardiovascular safety in conscious chair-restrained monkeys, single oral doses; assay type: in vivo, monkey; settings: monkey, plasma
Protocol: as §1, §2, §3

monkeys = test: as above; assay type: in vivo, monkey
Protocol: as §1, §2, §3

in vivo = settings: both, Sprague-Dawley, rat, po
[5] = target: GluN1a/GluN2B human receptors (Homo sapiens, UniProt Q05586+Q13224); test: Radioligand binding, L(tk−) cell membranes expressing human GluN1a/GluN2B; set-up: expressed in transfected cells; host or cells: L(tk−) cells (mouse fibroblasts), dexamethasone-inducible expression; settings: geometric mean
GluN1a/GluN2B human receptors, sequence (Q13224 27-1484, other chains not shown): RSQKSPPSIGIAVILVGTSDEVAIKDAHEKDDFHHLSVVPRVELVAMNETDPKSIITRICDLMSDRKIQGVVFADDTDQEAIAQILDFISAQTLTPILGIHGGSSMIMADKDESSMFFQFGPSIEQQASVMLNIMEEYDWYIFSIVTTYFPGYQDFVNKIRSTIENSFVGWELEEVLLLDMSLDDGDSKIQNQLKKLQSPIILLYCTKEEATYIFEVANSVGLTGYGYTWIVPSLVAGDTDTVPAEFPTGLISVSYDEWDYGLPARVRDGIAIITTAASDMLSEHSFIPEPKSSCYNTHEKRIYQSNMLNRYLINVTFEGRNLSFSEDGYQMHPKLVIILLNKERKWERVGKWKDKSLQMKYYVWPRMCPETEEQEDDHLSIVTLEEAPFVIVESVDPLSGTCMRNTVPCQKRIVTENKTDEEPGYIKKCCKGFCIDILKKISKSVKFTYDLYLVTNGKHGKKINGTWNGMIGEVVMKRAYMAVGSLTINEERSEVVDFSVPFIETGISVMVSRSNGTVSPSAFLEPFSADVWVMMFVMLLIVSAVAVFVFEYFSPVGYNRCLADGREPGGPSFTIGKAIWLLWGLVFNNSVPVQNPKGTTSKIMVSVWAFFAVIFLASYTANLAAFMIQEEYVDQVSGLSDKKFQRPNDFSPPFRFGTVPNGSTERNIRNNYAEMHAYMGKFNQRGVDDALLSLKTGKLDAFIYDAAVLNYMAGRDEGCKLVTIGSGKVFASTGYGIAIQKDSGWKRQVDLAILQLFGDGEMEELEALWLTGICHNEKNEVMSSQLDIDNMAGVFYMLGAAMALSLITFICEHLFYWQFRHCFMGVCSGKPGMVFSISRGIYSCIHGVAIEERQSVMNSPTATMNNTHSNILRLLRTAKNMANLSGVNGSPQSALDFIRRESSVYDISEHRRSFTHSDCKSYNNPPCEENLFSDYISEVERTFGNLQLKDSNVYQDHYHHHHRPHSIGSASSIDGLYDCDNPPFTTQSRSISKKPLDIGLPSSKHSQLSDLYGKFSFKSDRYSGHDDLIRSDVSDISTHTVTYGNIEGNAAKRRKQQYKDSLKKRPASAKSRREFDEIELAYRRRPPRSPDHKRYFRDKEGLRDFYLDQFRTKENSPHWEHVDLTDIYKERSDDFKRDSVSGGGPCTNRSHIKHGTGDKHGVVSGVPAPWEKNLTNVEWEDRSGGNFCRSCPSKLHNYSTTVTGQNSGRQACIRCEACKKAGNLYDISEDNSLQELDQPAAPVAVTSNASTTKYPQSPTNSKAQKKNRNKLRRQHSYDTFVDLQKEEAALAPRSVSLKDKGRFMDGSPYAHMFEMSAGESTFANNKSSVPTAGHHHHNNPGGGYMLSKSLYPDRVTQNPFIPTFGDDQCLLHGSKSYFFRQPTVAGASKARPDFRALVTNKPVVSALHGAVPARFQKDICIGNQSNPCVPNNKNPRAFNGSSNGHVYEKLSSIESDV

[6] = 15, 75, or 150 mg/kg oral, dose-independent

Cc1ccc(COC(=O)N2CC[C@H](CNc3ncccn3)[C@H](F)C2)cc1 [Form II, 4-methylbenzyl (3S, 4R)-3-fluoro-4-[(pyrimidin-2-ylamino)methyl] piperidine-1-carboxylate]
Ki ([1]; 37° C.): 14 nM
Ki ([1]; room temp.): 3.1 nM
decrease in Cmax, fed vs fasted ([2]; 4 mg): ~56%
delay in Tmax, fed vs fasted ([2]; 4 mg): ~1 h
overall extent of absorption (AUC), fed vs fasted ([2]; 4 mg): not affected
AUC(0-inf) ([2]; 2 mg, fasted, mean): 493 ng·h/mL
AUC(0-t) ([2]; 2 mg, fasted, mean): 398 ng·h/mL
Cmax ([2]; 2 mg, fasted, mean): 51.5 ng/mL
Tmax ([2]; 2 mg, fasted, mean, read-out: Tmax): 1.08 h
half-life ([2]; 2 mg, fasted, mean, read-out: t1/2 (converted)): 16.1 h
AUC(0-inf) ([2]; 4 mg, 4 mg (fed), mean): 1140 ng·h/mL
AUC(0-t) ([2]; 4 mg, 4 mg (fed), mean): 1080 ng·h/mL
Cmax ([2]; 4 mg, 4 mg (fed), mean): 80 ng/mL
Tmax ([2]; 4 mg, 4 mg (fed), mean, read-out: Tmax): 2 h
half-life ([2]; 4 mg, 4 mg (fed), mean, read-out: t1/2 (converted)): 17.3 h
AUC(0-inf) ([2]; 4 mg, fasted, mean): 1110 ng·h/mL
AUC(0-t) ([2]; 4 mg, fasted, mean): 1060 ng·h/mL
Cmax ([2]; 4 mg, fasted, mean): 141 ng/mL
Tmax ([2]; 4 mg, fasted, mean, read-out: Tmax): 0.67 h
half-life ([2]; 4 mg, fasted, mean, read-out: t1/2 (converted)): 16.9 h
AUC(0-inf) ([2]; 8 mg, fasted, mean): 2260 ng·h/mL
AUC(0-t) ([2]; 8 mg, fasted, mean): 2150 ng·h/mL
Cmax ([2]; 8 mg, fasted, mean): 212 ng/mL
Tmax ([2]; 8 mg, fasted, mean, read-out: Tmax): 0.92 h
half-life ([2]; 8 mg, fasted, mean, read-out: t1/2 (converted)): 17 h
AUC(0-inf) ([2]; 15 mg, fasted, mean): 4400 ng·h/mL
AUC(0-t) ([2]; 15 mg, fasted, mean): 3520 ng·h/mL
Cmax ([2]; 15 mg, fasted, mean): 385 ng/mL
Tmax ([2]; 15 mg, fasted, mean, read-out: Tmax): 1.04 h
half-life ([2]; 15 mg, fasted, mean, read-out: t1/2 (converted)): 16.8 h
AUC(0-inf) ([2]; 20 mg, fasted, mean): 5910 ng·h/mL
AUC(0-t) ([2]; 20 mg, fasted, mean): 5590 ng·h/mL
Cmax ([2]; 20 mg, fasted, mean): 590 ng/mL
Tmax ([2]; 20 mg, fasted, mean, read-out: Tmax): 1 h
half-life ([2]; 20 mg, fasted, mean, read-out: t1/2 (converted)): 15.9 h
Tmax ([2]; across all fasted dose levels, read-out: mean Tmax): ≤ 1 h
half-life ([2]; over the 4- to 20-mg dose range, read-out: terminal elimination half-life): 12 to 17 h
Cmax and AUC vs dose ([2]; over the dose range studied): dose-proportional
concentration at 90 min [3]: ~74 µM
heart rate, arterial blood pressure, femoral blood flow (dogs): did not affect
heart rhythm and ECG parameters incl. QTc interval (dogs): did not affect
Cmax ([4]; 15 mg/kg oral): ~3 µM
Cmax ([4]; 75 mg/kg oral): ~9 µM
Cmax ([4]; 150 mg/kg oral): ~15 µM
heart rhythm and ECG parameters (monkeys; 15, 75, and 150 mg/kg oral, monitored 6 h): did not affect
increase in diastolic pressure (monkeys; [6]): 7-10 mm Hg
increase in mean arterial pressure (monkeys; [6]): 9-12 mm Hg
increase in systolic pressure (monkeys; [6]): 12-15 mm Hg
Cmax (in vivo; 10 mg/kg): ~4 µM
Cmax (in vivo; 30 mg/kg): ~14 µM
Cmax (in vivo; 100 mg/kg): ~26 µM
Ki ([5]; 4° C.): 1.8 nM
Ki ([5]; 37° C.): 31 nM
Ki ([5]; room temp.): 4.9 nM
